Key:
[1] = Lipophilicity by reversed-phase TLC on RP-18 WF254s plates with standardization; details: for φ 0 (intercept of the trend line with abscissa axis): molar fraction for which lipophilicity equals 0
[2] = tested on: human prostate cancer cells DU145; assay: Cytotoxicity assay (PrestoBlue, resazurin); assay type: cell-based; details: 10 and 100 μM, 48 h
Protocol: (§1) Synthesized substances were dissolved in DMSO (Sigma-Aldrich) to obtain 20 mM stock solutions and kept in 4 °C prior to use.
(§2) The human prostate cancer cells DU145 and mouse melanoma cells B16F10 were maintained in humidified incubator containing 5 % CO2 at 37 °C. DU145 cells were cultured in RPMI medium and B16F10 were cultured in DMEM medium. The media were supplemented with 10 % of fetal calf serum (FCS) and 1 % of antibiotic antimycotic (Sigma). Cells were passaged every 2–3 days. All cell lines were obtained from ATCC (The Global Bioresource Center).
(§3) PrestoBlue (test based on resazurin) was used for analysis cytotoxicity/cytostatic effects. DU145 and B16F10 cells were seeded on 96-well plate (10 × 10^3 cells per well). Examined substances were added to culture after overnight cell incubation. Two concentrations of substances (10 and 100 μM) were used. Control cells and control cells with solvent (DMSO) were applied. After 48 h PrestoBlue test was performed.

[3] = tested on: mouse melanoma cells B16F10; assay: Cytotoxicity assay (PrestoBlue, resazurin); assay type: cell-based; details: B16-F10 (melanoma), 10 and 100 μM, 48 h
Protocol: as §1, §2, §3

[4] = known logP of standards; cited from earlier work
[5] = tested on: non-small-cell lung cancer NCI-H522; set-up: method as in PMID 21439691; details: cited from earlier work
leukemia RPMI-8226 = tested on: leukemia RPMI-8226; set-up: method as in PMID 21439691; details: cited from earlier work
leukemia K-562 = tested on: leukemia K-562; set-up: method as in PMID 21439691; details: cited from earlier work
prostate cancer PC-3 = tested on: prostate cancer PC-3; set-up: method as in PMID 21439691; details: cited from earlier work
leukemia HL-60 (TB) = tested on: leukemia HL-60 (TB); set-up: method as in PMID 21439691; details: cited from earlier work
sarcoma 180 = tested on: sarcoma 180; set-up: method as in doi:10.1021/jo00316a018; details: cited from earlier work
[6] = tested on: Walker 256 carcinosarcoma; set-up: method as in doi:10.1021/jo00316a018; details: cited from earlier work
P-388 lymphotic leukemia = tested on: P-388 lymphotic leukemia; set-up: method as in doi:10.1021/jo00316a018; details: cited from earlier work
Lewis lung carcinoma = tested on: Lewis lung carcinoma; set-up: method as in doi:10.1021/jo00316a018; details: cited from earlier work

CC(=O)c1c(C)cc2oc(=O)cc(C)c2c1O [Compound 3, 6-acetyl-5-hydroxy-4,7-dimethylcoumarin]
S (slope of the trend line RM vs φ) ([1]; acetonitrile/water): 3.706 | φ 0 (intercept of the trend line with abscissa axis) ([1]; acetonitrile/water): 0.519 | S (slope of the trend line RM vs φ) ([1]; dioxane/water): 4.1018 | φ 0 (intercept of the trend line with abscissa axis) ([1]; dioxane/water): 0.55 | S (slope of the trend line RM vs φ) ([1]; isopropanol/water): 3.15 | φ 0 (intercept of the trend line with abscissa axis) ([1]; isopropanol/water): 0.479 | S (slope of the trend line RM vs φ) ([1]; methanol/water): 3.2113 | φ 0 (intercept of the trend line with abscissa axis) ([1]; methanol/water): 0.754 | cytotoxicity in primary screen [2]: slightly active | cytotoxicity in primary screen [3]: slightly active

Cc1cc(O)c2c(C)cc(=O)oc2c1 [Compound 2, 5-hydroxy-4,7-dimethylcoumarin]
S (slope of the trend line RM vs φ) ([1]; acetonitrile/water): 3.2466 | φ 0 (intercept of the trend line with abscissa axis) ([1]; acetonitrile/water): 0.437 | S (slope of the trend line RM vs φ) ([1]; dioxane/water): 3.3439 | φ 0 (intercept of the trend line with abscissa axis) ([1]; dioxane/water): 0.483 | S (slope of the trend line RM vs φ) ([1]; isopropanol/water): 2.8574 | φ 0 (intercept of the trend line with abscissa axis) ([1]; isopropanol/water): 0.445 | S (slope of the trend line RM vs φ) ([1]; methanol/water): 2.746 | φ 0 (intercept of the trend line with abscissa axis) ([1]; methanol/water): 0.675 | cytotoxicity in primary screen [2]: slightly active | cytotoxicity in primary screen [3]: slightly active

CC(=O)c1c(C)cc2oc(=O)cc(C)c2c1OCC#N [Compound 6, 6-acetyl-5-(cyanomethoxy)-4,7-dimethylchromen-2-one]
S (slope of the trend line RM vs φ) ([1]; acetonitrile/water): 3.7596 | φ 0 (intercept of the trend line with abscissa axis) ([1]; acetonitrile/water): 0.517 | S (slope of the trend line RM vs φ) ([1]; dioxane/water): 3.2502 | φ 0 (intercept of the trend line with abscissa axis) ([1]; dioxane/water): 0.501 | S (slope of the trend line RM vs φ) ([1]; isopropanol/water): 3.2079 | φ 0 (intercept of the trend line with abscissa axis) ([1]; isopropanol/water): 0.383 | S (slope of the trend line RM vs φ) ([1]; methanol/water): 2.3247 | φ 0 (intercept of the trend line with abscissa axis) ([1]; methanol/water): 0.577 | melting point: 283 to 284 °C

Nc1ccc(Cl)cc1Cl [2,4-Dichloroaniline, 2,4-dichloroaniline, reference compound]
R M0 (lipophilicity extrapolated to 100 % water) ([1]; acetonitrile/water): 1.8609 | S (slope of the trend line RM vs φ) ([1]; acetonitrile/water): 3.3029 | R M0 (lipophilicity extrapolated to 100 % water) ([1]; dioxane/water): 2.0135 | S (slope of the trend line RM vs φ) ([1]; dioxane/water): 3.3036 | R M0 (lipophilicity extrapolated to 100 % water) ([1]; isopropanol/water): 2.1269 | S (slope of the trend line RM vs φ) ([1]; isopropanol/water): 4.2876 | R M0 (lipophilicity extrapolated to 100 % water) ([1]; methanol/water): 1.8895 | S (slope of the trend line RM vs φ) ([1]; methanol/water): 2.7739 | LogP value [4]: 2.91

CC(=O)c1c(OCC#N)ccc2c(C)cc(=O)oc12 [8-Acetyl-7-(cyanomethoxy)-4-methylcoumarin]
growth inhibition [5]: inhibited the growth | growth inhibition (leukemia RPMI-8226): inhibited the growth | growth inhibition (leukemia K-562): inhibited the growth | growth inhibition (prostate cancer PC-3): inhibited the growth | growth inhibition (leukemia HL-60 (TB)): inhibited the growth

C/C(=C\COc1ccc2ccc(=O)oc2c1)C1=CC(=O)C(C)(C)O1 [Geiparvarin]
inhibitory activity (sarcoma 180): significant inhibitory activity | inhibitory activity [6]: significant inhibitory activity | inhibitory activity (P-388 lymphotic leukemia): significant inhibitory activity | inhibitory activity (Lewis lung carcinoma): significant inhibitory activity

Cc1cc(OCC#N)c2c(C)cc(=O)oc2c1 [Compound 5, 5-(cyanomethoxy)-4,7-dimethylchromen-2-one]
S (slope of the trend line RM vs φ) ([1]; acetonitrile/water): 3.3589 | φ 0 (intercept of the trend line with abscissa axis) ([1]; acetonitrile/water): 0.499 | S (slope of the trend line RM vs φ) ([1]; dioxane/water): 3.2254 | φ 0 (intercept of the trend line with abscissa axis) ([1]; dioxane/water): 0.498 | S (slope of the trend line RM vs φ) ([1]; isopropanol/water): 2.3947 | φ 0 (intercept of the trend line with abscissa axis) ([1]; isopropanol/water): 0.434 | S (slope of the trend line RM vs φ) ([1]; methanol/water): 2.677 | φ 0 (intercept of the trend line with abscissa axis) ([1]; methanol/water): 0.669 | melting point: 214 to 216 °C

N#CCOc1cc(=O)oc2ccccc12 [Compound 4, 4-(cyanomethoxy)chromen-2-one]
S (slope of the trend line RM vs φ) ([1]; acetonitrile/water): 2.8179 | φ 0 (intercept of the trend line with abscissa axis) ([1]; acetonitrile/water): 0.438 | S (slope of the trend line RM vs φ) ([1]; dioxane/water): 2.5467 | φ 0 (intercept of the trend line with abscissa axis) ([1]; dioxane/water): 0.452 | S (slope of the trend line RM vs φ) ([1]; isopropanol/water): 2.2371 | φ 0 (intercept of the trend line with abscissa axis) ([1]; isopropanol/water): 0.401 | S (slope of the trend line RM vs φ) ([1]; methanol/water): 2.2036 | φ 0 (intercept of the trend line with abscissa axis) ([1]; methanol/water): 0.607 | melting point: 204 °C

From publication PMC4494852, “Microwave-assisted preparation, structural characterization, lipophilicity, and anti-cancer assay of some hydroxycoumarin derivatives” (Monatshefte Fur Chemie, 2014)
